Data reported in patent publication US20090156577A1, “7-AMINO ALKYLIDENYL-HETEROCYCLIC QUINOLONES AND NAPHTHYRIDONES” (priority 2004, published 2009).
≈ marks a conversion by molar mass, not a printed value. Counter-ions that a name gives are not always drawn. Like-named read-outs stand apart in the source and are kept apart here.

Tested on: pathogenic bacteria
Assay: MIC by microdilution broth method (NCCLS M7-A4), in vitro antibacterial activity
Type: cell-based
Experimental: Minimal inhibitory concentration (MIC) has been an indicator of in vitro antibacterial activity widely used in the art. The in vitro antimicrobial activity of the compounds was determined by the microdilution broth method following the test method from the National Committee for Clinical Laboratory Standards (NCCLS). This method is described in the NCCLS Document M7-A4, Vol. 17, No. 2, “Methods for Dilution Antimicrobial Susceptibility Test for Bacteria that Grow Aerobically—Fourth Edition”, which is incorporated herein by reference.
In this method two-fold serial dilutions of drug in cation adjusted Mueller-Hinton broth are added to wells in microdilution trays. The test organisms are prepared by adjusting the turbidity of actively growing broth cultures so that the final concentration of test organism after it is added to the wells is approximately 5×10^4 CFU/well.
Following inoculation of the microdilution trays, the trays are incubated at 35° C. for 16-20 hours and then read. […] The amount of growth in the wells containing the test compound is compared with the amount of growth in the growth-control wells (no test compound) used in each tray. As set forth in Table 5, compounds of the present invention were tested against a variety of pathogenic bacteria resulting in a range of activities depending on the organism tested.

[1] = Staphylococcus aureus, Organism A: Staphylococcus aureus OC4172, read-out: MIC
[2] = Streptococcus pneumoniae, ATCC49619, Organism E: Streptococcus pneumoniae ATCC 49619, read-out: MIC
[3] = Streptococcus pneumoniae, Organism B: fluoroquinolone-resistant clinical isolate of Streptococcus pneumoniae (QRDR amino acid substitutions)
[4] = Streptococcus pneumoniae, Organism C: fluoroquinolone-resistant clinical isolate of Streptococcus pneumoniae (QRDR amino acid substitutions)
[5] = Streptococcus pneumoniae, Organism D: fluoroquinolone-resistant clinical isolate of Streptococcus pneumoniae (QRDR amino acid substitutions)

Row | SMILES | MIC [1] [µg/mL] | MIC [2] [µg/mL] | MIC [3] [µg/mL] | MIC [4] [µg/mL] | MIC [5] [µg/mL] | MIC (Staphylococcus aureus, Organism A: Staphylococcus aureus OC4172) [µg/mL] | MIC (Streptococcus pneumoniae, ATCC49619, Organism E: Streptococcus pneumoniae ATCC 49619) [µg/mL]
1 | C[C@H]1COc2c(N3CCC/C(=C(/F)CN)C3)c(F)cc3c(=O)c(C(=O)O)cn1c23 [Compound 399, (Z)-9-[3-(2-Amino-1-fluoro-ethylidene)-piperidin-1-yl]-8-fluoro-(3S)-3-methyl-6-oxo-2,3-dihydro-6H-1-oxa-3a-aza-phenalene-5-carboxylic acid] | 0.5 (≈ 1.23 µM) | 2 (≈ 4.93 µM) | 4 (≈ 9.87 µM) | > 16 | > 16 |  | 
2 | NC/C(F)=C1\CCCN(c2c(F)cc3c(=O)c(C(=O)O)cn(C4CC4)c3c2OC(F)F)C1 [Compound 395, (Z)-7-[3-(2-Amino-1-fluoro-ethylidene)-piperidin-1-yl]-1-cyclopropyl-8-difluoromethoxy-6-fluoro-4-oxo-1,4-dihydro-quinoline-3-carboxylic acid] | 0.06 (≈ 0.132 µM) | 0.5 (≈ 1.1 µM) | 4 (≈ 8.78 µM) | 8 (≈ 17.6 µM) | 0.5 (≈ 1.1 µM) |  | 
3 | CCNCC(Cl)=C1CCN(c2c(F)cc3c(=O)c(C(=O)O)cn(C4CC4)c3c2OC)CC1 [Compound 75, 7-[4-(1-Chloro-2-ethylamino-ethylidene)-piperidin-1-yl]-1-cyclopropyl-6-fluoro-8-methoxy-4-oxo-1,4-dihydro-quinoline-3-carboxylic acid] | 0.12 (≈ 0.259 µM) | 0.25 (≈ 0.539 µM) | 1 (≈ 2.16 µM) | 1 (≈ 2.16 µM) | 1 (≈ 2.16 µM) |  | 
4 | C[C@H]1COc2c(N3CCC/C(=C/CN)C3)c(F)cc3c(=O)c(C(=O)O)cn1c23 [Compound 402, (Z)-9-[3-(2-Amino-ethylidene)-piperidin-1-yl]-8-fluoro-(3S)-3-methyl-6-oxo-2,3-dihydro-6H-1-oxa-3a-aza-phenalene-5-carboxylic acid] | 0.25 (≈ 0.645 µM) | 2 (≈ 5.16 µM) | 16 (≈ 41.3 µM) | > 16 | > 16 |  | 
5 | NC/C(Cl)=C1/CCCN(c2cc3c(cc2F)c(=O)c(C(=O)O)cn3C2CC2)C1 [Compound 257, (E)-7-[3-(2-Amino-1-chloro-ethylidene)-piperidin-1-yl]-1-cyclopropyl-6-fluoro-4-oxo-1,4-dihydro-quinoline-3-carboxylic acid] | 0.03 (≈ 0.0739 µM) | 0.06 (≈ 0.148 µM) | 0.5 (≈ 1.23 µM) | 0.5 (≈ 1.23 µM) | 0.5 (≈ 1.23 µM) |  | 
6 | O=C(O)c1cn(-c2ccc(F)cc2F)c2nc(N3CCC(=CCO)CC3)c(F)cc2c1=O [Compound 185, 1-(2,4-Difluoro-phenyl)-6-fluoro-7-[4-(2-hydroxy-ethylidene)-piperidin-1-yl]-4-oxo-1,4-dihydro-[1,8]naphthyridine-3-carboxylic acid] | 0.12 (≈ 0.269 µM) | 1 (≈ 2.25 µM) | 16 (≈ 35.9 µM) | 16 (≈ 35.9 µM) |  |  | 
7 | NCC(F)=C1CCN(c2nc3c(cc2F)c(=O)c(C(=O)O)cn3-c2ccc(F)cc2F)CC1 [Compound 4, 7-[4-(2-Amino-1-fluoro-ethylidene)-piperidin-1-yl]-1-(2,4-difluoro-phenyl)-6-fluoro-4-oxo-1,4-dihydro-[1,8]naphthyridine-3-carboxylic acid] | 0.06 (≈ 0.13 µM) | 0.25 (≈ 0.541 µM) |  | 1 (≈ 2.16 µM) | 2 (≈ 4.33 µM) |  | 
8 | C[C@H]1COc2c(N3CCOC/C(=C(/F)CN)C3)c(F)cc3c(=O)c(C(=O)O)cn1c23 [Compound 494, 9-[(E)-6-(2-Amino-1-fluoro-ethylidene)-[1,4]oxazepan-4-yl]-8-fluoro-(3S)-3-methyl-6-oxo-2,3-dihydro-6H-1-oxa-3a-aza-phenalene-5-carboxylic Acid] | 1 (≈ 2.37 µM) | 8 (≈ 19 µM) |  | > 16 | > 16 |  | 
9 | NC/C=C1\CCCN(c2c(F)cc3c(=O)c(C(=O)O)cn(-c4nc(N)c(F)cc4F)c3c2Cl)C1 [Compound 414, (E)-1-(6-Amino-3,5-difluoro-pyridin-2-yl)-7-[3-(2-amino-ethylidene)-piperidin-1-yl]8-chloro-6-fluoro-4-oxo-1,4-dihydro-quinoline-3-carboxylic acid] | 0.25 (≈ 0.506 µM) | 2 (≈ 4.05 µM) |  | > 16 | > 16 |  | 
10 | NC/C(F)=C1/CCCN(c2c(F)cc3c(=O)c(C(=O)O)cn(-c4nc(N)c(F)cc4F)c3c2Cl)C1 [Compound 358, (E)-1-(6-Amino-3,5-difluoro-pyridin-2-yl)-7-[3-(2-amino-1-fluoro-ethylidene)-piperidin-1-yl]-8-chloro-6-fluoro-4-oxo-1,4-dihydro-quinoline-3-carboxylic Acid Trifluoroacetate] |  |  | 16 | 8 | 16 | 0.12 | 0.5
11 | NCC(Cl)=C1CCN(c2c(F)c(N)c3c(=O)c(C(=O)O)cn(C4CC4)c3c2F)CC1 [Compound 369, 5-Amino-7-[4-(2-amino-1-chloro-ethylidene)-piperidin-1-yl]-1-cyclopropyl-6,8-difluoro-4-oxo-1,4-dihydro-quinoline-3-carboxylic Acid] | 0.03 (≈ 0.0684 µM) | 0.03 (≈ 0.0684 µM) | 0.06 (≈ 0.137 µM) | 0.5 (≈ 1.14 µM) | 0.12 (≈ 0.273 µM) |  | 
12 | CNCC(F)=C1CN(c2cc3c(cc2F)c(=O)c(C(=O)O)cn3C2CC2)C1.O=C(O)C(F)(F)F [Compound 430, 1-Cyclopropyl-6-fluoro-7-[3-(1-fluoro-2-methylamino-ethylidene)-azetidin-1-yl]-4-oxo-1,4-dihydro-quinoline-3-carboxylic acid trifluoroacetic acid salt] | 0.12 | 0.5 | 8 | 2 | 4 |  | 
13 | NC/C(F)=C1/CCCN(c2c(F)cc3c(=O)c(C(=O)O)cn(C4CC4)c3c2OC(F)F)C1 [Compound 259, (E)-7-[3-(2-Amino-1-fluoro-ethylidene)-piperidin-1-yl]-1-cyclopropyl-8-difluoromethoxy-6-fluoro-4-oxo-1,4-dihydro-quinoline-3-carboxylic acid] | 0.03 (≈ 0.0659 µM) | 0.06 (≈ 0.132 µM) | 0.5 (≈ 1.1 µM) | 1 (≈ 2.2 µM) | 0.12 (≈ 0.263 µM) |  | 
14 | CC(C)NCC(F)=C1CCN(c2nc3c(cc2F)c(=O)c(C(=O)O)cn3C2CC2)CC1 [Compound 247, 1-Cyclopropyl-6-fluoro-7-[4-(1-fluoro-2-isopropylamino-ethylidene)-piperidin-1-yl]-4-oxo-1,4-dihydro-[1,8]naphthyridine-3-carboxylic acid] | 0.5 (≈ 1.16 µM) | 0.5 (≈ 1.16 µM) |  | 8 (≈ 18.5 µM) | 2 (≈ 4.62 µM) |  | 
15 | NC/C(Cl)=C1/CCCN(c2nc3c(cc2F)c(=O)c(C(=O)O)cn3C2CC2)C1 [Compound 254, (E)-7-[3-(2-Amino-1-chloro-ethylidene)-piperidin-1-yl]-1-cyclopropyl-6-fluoro-4-oxo-1,4-dihydro-[1,8]naphthyridine-3-carboxylic acid] | 0.06 (≈ 0.147 µM) | 0.25 (≈ 0.614 µM) |  | 4 (≈ 9.83 µM) | 4 (≈ 9.83 µM) |  | 
16 | NCC=C1CCN(c2nc3c(cc2F)c(=O)c(C(=O)O)cn3C2CC2)CC1 [Compound 59, 7-[4-(2-Amino-ethylidene)-piperidin-1-yl]-1-cyclopropyl-6-fluoro-4-oxo-1,4-dihydro-[1,8]naphthyridine-3-carboxylic acid] | 0.06 (≈ 0.161 µM) | 0.5 (≈ 1.34 µM) | 8 (≈ 21.5 µM) | 8 (≈ 21.5 µM) |  |  | 
17 | NC/C=C1\CCCN(c2c(F)cc3c(=O)c(C(=O)O)cn(C4CC4)c3c2OC(F)F)C1 [Compound 397, (E)-7-[3-(2-Amino-ethylidene)-piperidin-1-yl]-1-cyclopropyl-8-difluoromethoxy-6-fluoro-4-oxo-1,4-dihydro-quinoline-3-carboxylic acid] | 0.06 (≈ 0.137 µM) | 0.5 (≈ 1.14 µM) |  | 8 (≈ 18.3 µM) | 2 (≈ 4.57 µM) |  | 
